Assay results as given in patent EP0547317A1, “Endothelin antagonists” (TAKEDA CHEMICAL INDUSTRIES, LTD., priority 1991, dated 1993).
Bridge positions count the residues as written; N and C are the ends. Peptide text beside a SMILES is read from it.

System: porcine coronary smooth muscles
Test: Assay of constrictor suppressing activity on porcine coronary smooth muscles (antagonism of endothelin-1 constriction)
Format: cell-based
Conditions: for pA₂: antagonistic activity on constriction by endothelin-1 given cumulatively about 15 minutes after the compound, negative logarithm of molar concentration of antagonist shifting the dose response curve by a factor of 2; for Relative potency: antagonistic activity on the constriction of porcine coronary smooth muscles, Example 1 = 100
Experimental: • (1) Assay of Constrictor Suppressing Activity on Porcine Coronary Smooth Muscles Spiral strips 2 mm x 15 mm prepared from the coronary right ramus circumflexus from which the adventitial connective tissues and the endothelial cells were removed were set to 4 ml organ baths. The tension of each strip was detected by a force displacement transducer UL-10GR (Minebea), and recorded by a polygraph (NEC Sanei). The organ baths were maintained at 37°C, and filled with a Krebs-Henseleit solution (composition: 118 mM NaCl, 4.7 mM KCl, 2.5 mM CaCl₂, 1.2 mM KH₂PO₄, 25.0 mM NaHCO₃, 1.2 mM MgSO₄, 10.0 mM glucose) gassed with 95% O₂ and 5% CO₂. A tension of 1.25 to 1.5 g was applied to each of the strips, followed by equilibration for 1.5 hours. 60 mM KCl was repeatedly applied thereto at intervals of 30 minutes until the constriction response became constant. After additional equilibration for 1.5 hours, a sample for assay was given thereto. The constriction of the strips was normalized by the constriction response of the individual strips to 60 mM KCl and statistically processed. The suppressing activity was determined as a pA₂ value by giving endothelin-1 cumulatively about 15 minutes after the compound having a predetermined concentration was given, and comparing the constriction thereof with that of a control sample in which only endothelin-1 was given. […] Such a case has not been reported yet. […] The affinity for the receptor was assayed by the following method.

Compound	pA₂	Relative potency
CC[C@H](C)[C@H](NC(=O)[C@H](CC(C)C)NC(=O)[C@@H](NC(=O)[C@H](CC(C)C)NC(=O)[C@H](Cc1c[nH]cn1)NC(=O)[C@@H]1CSSC[C@H](N)C(=O)N[C@@H](CO)C(=O)N[C@H]2CSSC[C@H](NC(=O)[C@H](CCC(=O)O)NC(=O)[C@H](CCCCN)NC(=O)[C@H](CC(=O)O)NC(=O)[C@H](CCSC)NC(=O)[C@H](C)NC(=O)[C@H](CO)NC(=O)[C@H](CO)NC2=O)C(=O)N[C@@H](C(C)C)C(=O)N[C@@H](Cc2ccc(O)cc2)C(=O)N[C@@H](Cc2ccccc2)C(=O)N1)[C@@H](C)O)C(=O)N[C@@H](Cc1c[nH]c2ccccc12)C(=O)O [Example 15, [Ala⁶, Thr¹⁸, Leu¹⁹]-ET-1] (H-CSCSSAMDKECVYFCHLTLIW-OH; disulfide 1-15, 3-11)	6.5	6
CC[C@H](C)[C@H](NC(=O)[C@H](CC(C)C)NC(=O)[C@@H](NC(=O)[C@H](CC(C)C)NC(=O)[C@H](Cc1c[nH]cn1)NC(=O)[C@@H]1CSSC[C@H](N)C(=O)N[C@@H](CO)C(=O)N[C@H]2CSSC[C@H](NC(=O)[C@H](CCC(=O)O)NC(=O)[C@H](CCCCN)NC(=O)[C@H](CC(=O)O)NC(=O)[C@H](C)NC(=O)[C@H](CC(C)C)NC(=O)[C@H](CO)NC(=O)[C@H](CO)NC2=O)C(=O)N[C@@H](C(C)C)C(=O)N[C@@H](Cc2ccc(O)cc2)C(=O)N[C@@H](Cc2ccccc2)C(=O)N1)[C@@H](C)O)C(=O)N[C@@H](Cc1c[nH]c2ccccc12)C(=O)O [Example 16, [Ala⁷, Thr¹⁸, Leu¹⁹]-ET-1] (H-CSCSSLADKECVYFCHLTLIW-OH; disulfide 1-15, 3-11)	7.2	32
